From PubChem BioAssay AID743396 (Broad Institute, 2014)
Active and inactive are the calls of the source.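 How the source made its calls: active means fitted curve reaches a 40% rise in fluorescent cells at or below the top valid dose; inactive means opposite-direction effect, or the rest.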

Test: autofluorescent compounds in non-GFP fibroblasts, dose response, artefact control for X-chromosome reactivation project, imaging, mTEFS fibroblasts, cherry-pick (AID 743396);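 further: raw share of Hoechst-counted cells scored GFP positive without control normalization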
Conditions: mTEFS fibroblasts autofluorescence, GFP-channel imaging, 3 days
[1] = at 19.5 µM (top of the series), cells pretreated with 5-aza-dC

SMILES | % fluorescent cells increase [1] | also measured
C[C@@H]1CN([C@H](C)CO)C(=O)c2cc(NC(=O)Nc3ccc4c(c3)OCO4)ccc2O[C@@H](C)CCCCO[C@@H]1CN(C)C(=O)Cc1ccccc1 | 0.027% (inactive) | 
CCCCCCCCN1C(=O)[C@H](CC(=O)N2CCSCC2)C[C@@]2(C(=O)OCC)CCCC=C12 | 0.056% (inactive) | 
COC(=O)c1c(NC(=O)c2ccc(C)cc2)csc1C | -0.006% (inactive) | 
COc1ccc(/C=c2/sc3nc(-c4ccccc4)c(-c4ccccc4)n3c2=O)cc1 | 0.085% (inactive) | 
Cc1c(Nc2cc(Cl)c3nonc3c2[N+](=O)[O-])c(=O)n(-c2ccccc2)n1C | -0.007% (inactive) | 
N#CC(C#N)=C1C=CC=CN1/C(=C\c1ccco1)C(=O)c1ccc(Br)cc1 | 0% (inactive) | 
O=[N+]([O-])c1ccc(S(=O)(=O)c2ccccc2)nc1 | -0.004% (inactive) | 
COc1ccccc1C#Cc1ccc2c(c1)O[C@H](CN(C)Cc1cncnc1)[C@@H](C)CN([C@H](C)CO)S2(=O)=O | 0% (inactive) | 
Cc1ncsc1C(=O)Nc1cccc(C(F)(F)F)c1 | 0.019% (inactive) | 
Cc1cc(/C=C2\SC(=S)N(Cc3ccco3)C2=O)c(C)n1-c1ccccc1 | 0.981% (inactive) | 
CCOC(=O)C1(Cc2ccccc2C)CCCN(C(=O)CSC)C1 (configuration not stated) | 0% (inactive) | 
C=CC[C@@H](CC(=O)N(CCO)Cc1ccccc1)C(=O)NCCOC(=O)[C@@H](CC=C)Cc1ccc(F)cc1 | 0.009% (inactive) | 
O=C(NCCOc1ccccc1)c1cc([N+](=O)[O-])ccc1N1CCOCC1 | 0.343% (inactive) | 
CO[C@@H]1CN(C)C(=O)c2ccc(NC(=O)Nc3cccc(Cl)c3)cc2OC[C@H](C)N(C(=O)Nc2c(C)noc2C)C[C@H]1C | 0.367% (inactive) | 
Oc1ccc(Br)cc1C=Nc1ccc2c3c(cccc13)CC2 | 3.42% (inactive) | 
O=C(OCc1cccc(F)c1)c1ccc2c(=O)n3c(nc2c1)CCC3 | 0.065% (inactive) | 
CSc1ccc(CN2C(=O)NC3(CCCCCCC3)C2=O)cc1 | -0.004% (inactive) | 
Cc1ccccc1NC(=O)c1c(C)[nH]c(=S)c(C#N)c1-c1ccc(Cl)cc1 | 0.031% (inactive) | 
Cc1ccc(N(C)C(=O)C2CCN(S(=O)(=O)c3ccc4c(c3)oc(=O)n4C)CC2)cc1 | -0.007% (inactive) | 
COc1ccc(S(=O)(=O)N(C)C[C@H]2Oc3ccc(NS(=O)(=O)c4ccc(F)cc4)cc3CC(=O)N([C@@H](C)CO)C[C@@H]2C)cc1 | 0% (inactive) | 
COc1ccc(COc2ccccc2C(=O)NCc2ccccc2)cc1F | 0% (inactive) | 

SMILES | % fluorescent cells increase [1] | also measured
Cc1ccc(-c2[nH]c(=S)[nH]c(=O)c2C#N)cc1 | 0.007% (inactive) | 
O=[N+]([O-])c1ccc(/C=N/NC(=S)Nc2ccc(Cl)cc2Cl)s1 | 0.614% (inactive) | 
C[C@@H]1CN(C)C(=O)Cc2cc(N(C)C)ccc2O[C@@H]1CN(C)S(C)(=O)=O | 0.125% (inactive) | 
CN(C)C(=O)CN1CCN(Cc2nc(CC3CC3)no2)CC1 | 0.246% (inactive) | 
CN(C)/C=C1\C=C2C(=O)c3ccccc3N2C1=O | 0.092% (inactive) | 
CC(=O)c1ccc(NC(=O)COC(=O)CCc2ccc(S(=O)(=O)N3CCOCC3)cc2)cc1 | 0.108% (inactive) | 
Nc1ccccc1Sc1ccc(C(F)(F)F)cc1[N+](=O)[O-] | 0% (inactive) | 
COc1ccc(NS(=O)(=O)c2ccc(NC(C)=O)cc2)nn1 | -0.003% (inactive) | 
CCOC(=O)c1sc2nc(CSc3ccccc3)[nH]c(=O)c2c1C | 0.048% (inactive) | 
COc1ccccc1OCCOc1ccc(/C=C2\C(=N)N3N=C(S(C)(=O)=O)SC3=NC2=O)cc1 | 0% (inactive) | 
C[C@@H]1ON(C)[C@H]2C[C@H]3c4cc(-c5cccc(F)c5)ccc4CCN3C(=O)[C@@H]12 | 0% (inactive) | 
CC(=O)NC(c1ccc(Cl)cc1)c1c(O)ccc2ccc(O)cc12 (configuration not stated) | 0.001% (inactive) | 
O=C(NCCO)/C(=C/c1ccco1)NC(=O)c1ccco1 | 0.007% (inactive) | 
CCCCNc1nc2c(-c3ccccc3)nnn2c2ccccc12 | 0.006% (inactive) | 
Cc1cccc(NCc2ccc(O)c3ncccc23)c1C | 0.074% (inactive) | 
C[C@H](NC(=O)C[C@@H]1CC[C@H](NC(=O)Cc2ccccn2)[C@@H](CO)O1)c1ccccc1 | 0.048% (inactive) | 
Cc1ccc(C)c(CSC2=NN3CCCC(=O)N=C3S2)c1 | -0.006% (inactive) | 
CN(c1ccccc1)S(=O)(=O)c1ccc(C(=O)NCC(c2ccco2)N2CCCCC2)cc1 (configuration not stated) | 6.89% (inactive) | 
CN(C)c1ccc(NC2=C(Cl)C(=O)c3ccccc3C2=O)cc1 | -0.006% (inactive) | 
CCOC(=O)/C(C#N)=C/C=C1/C=CC=CN1C | 0.015% (inactive) | 
COc1ccc(C2C(=O)c3ccccc3C2=Nc2ccc(Br)cc2)cc1 (configuration not stated) | 0.033% (inactive) | 

SMILES | % fluorescent cells increase [1] | also measured
CCOC(=O)CSc1nnc(CCCCCN2C(=O)c3cccc4cccc(c34)C2=O)o1 | 0.071% (inactive) | 
O=[N+]([O-])c1c(Nc2ccc(O)cc2)cc(Cl)c2nonc12 | -0.006% (inactive) | 
Cc1ccc(S(=O)(=O)Nc2ccc3c(c2)C(=O)N([C@@H](C)CO)C[C@@H](C)[C@@H](CN(C)Cc2ccc(C(=O)Nc4ccccc4N)cc2)O3)cc1 | 0% (inactive) | 
COC(=O)Cn1cc(/C=C2\C(=O)NC(=O)N(c3ccc(OC)cc3)C2=O)c2ccccc21 |  | % fluorescent cells increase (at 19.5 µM (top of the series)): 0.304% (inactive)
COC(=O)c1c(NC(=O)c2ccccc2)sc2c1CC(C)(C)NC2(C)C | -0.011% (inactive) | 
O=C(COC(=O)c1ccc(NS(=O)(=O)c2cccs2)cc1O)NC1CCCCC1 | 0.547% (inactive) | 
Cc1ccc(-c2ccccc2[C@@H]2[C@H](C#N)N(S(C)(=O)=O)[C@H]2CO)cc1 |  | % fluorescent cells increase (at 21 µM (top of the series), cells pretreated with 5-aza-dC): -0.036% (inactive)
CCOC(=O)c1ccc(NC(=O)C2(N3C(=O)c4ccccc4C3=O)CCCC2)cc1 | 0.495% (inactive) | 
COc1ccc(CCCc2nc3ccccc3[nH]2)cc1 | -0.011% (inactive) | 
CN(C1CCCCC1)S(=O)(=O)c1ccc(C(=O)N2CCN(c3nc4ccccc4s3)CC2)cc1 | -0.007% (inactive) | 
C[n+]1c(-c2ccccc2)c2cc(N)ccc2c2ccc(N)cc21 |  | % fluorescent cells increase (at 19.5 µM (top of the series)): 0.212% (inactive)
Cc1nnc(-c2ccc(N3CCCCCC3)c([N+](=O)[O-])c2)o1 | 0% (inactive) | 
C/C(=N\NC(=O)c1ccccc1Cl)c1ccccn1 | 0% (inactive) | 
COc1ccc2c3c(n(C)c2c1)[C@@H](CO)N(C(=O)NC(C)C)CC31CN(C(C)=O)C1 | -0.138% (inactive) | 
O=C1c2cccc3c([N+](=O)[O-])ccc(c23)C(=O)N1Cc1cccnc1 | 11.8% (inactive) | 
COc1ccc(C(=O)N/N=C/c2cc(Br)ccc2O)cc1OC | 4.96% (inactive) | 
O=C(COC(=O)/C=C/c1cccc(C(F)(F)F)c1)NC(=O)NCc1ccco1 | 0.351% (inactive) | 
C[C@@H]1CN([C@@H](C)CO)C(=O)c2cc(NS(=O)(=O)c3cn(C)cn3)ccc2O[C@@H](C)CCCCO[C@H]1CN(C)C(=O)c1ccccc1 | 0% (inactive) | 
Cc1ccccc1C1c2[nH]c3ccccc3c2CCN1Cc1cccn1-c1ncccn1 (configuration not stated) | 0.002% (inactive) | 
CCOC(=O)C1CCN(C(=O)c2ccc(NS(=O)(=O)c3ccc(F)cc3C)cc2)CC1 | 0% (inactive) | 
CCCN(C(=O)c1ccc(-n2cncn2)c([N+](=O)[O-])c1)C1CCS(=O)(=O)C1 (configuration not stated) | 0.034% (inactive) | 

SMILES | % fluorescent cells increase [1] | also measured
COc1cc(C(=O)NC(=S)Nc2cccc3nc(C)ccc23)cc(OC)c1OC | 0.128% (inactive) | 
O=C1c2ccc3c4c(ccc(c24)C(=O)N1c1cccc(O)c1)C(=O)N(c1cccc(O)c1)C3=O | -0.003% (inactive) | 
CC(=O)c1ccc(C(=O)Nc2sc3c(c2C(N)=O)CCN(Cc2ccccc2)C3)cc1 | 8.52% (inactive) | 
CC1=C(Cl)C2=NS(=O)(=O)CCN2C=C1Cl | 1.51% (inactive) | 
Cc1occc1C(=O)N/N=C/C(Br)=C\c1ccccc1 | -0.004% (inactive) | 
COc1ccccc1/C=C/C(=O)OCC(=O)NC(=O)NC1CCCC1 | 0% (inactive) | 
CCN1/C(=C/c2ccc3cc(C)ccc3[n+]2CC)Sc2cc(C)c(C)cc21 |  | % fluorescent cells increase (at 6.8 µM (top of the series), cells pretreated with 5-aza-dC): 27.9% (inactive)
O=c1[nH]c(=O)n(CCC2=CCCCC2)c(O)c1/C=N/Nc1ccccc1 |  | % fluorescent cells increase (at 19.5 µM (top of the series)): 0% (inactive)
O=C(O)c1ccc(COc2ccccc2C=C2C(=O)c3ccccc3C2=O)cc1 | -0.004% (inactive) | 
Cc1ccc(C(=O)Cn2cncn2)cc1 | -0.006% (inactive) | 
COc1ccc(/C=C2\CCc3ccccc3C2=O)cc1CN1CCOCC1 | -0.007% (inactive) | 
O=C(OCc1cc(=O)n2c(n1)sc1ccccc12)c1ccc(O)cc1O | -0.007% (inactive) | 
Cc1c(/C=N\NC(=O)c2cc3ccccc3o2)c2ccccc2n1C | 0% (inactive) | 
NNC(=O)c1sc(-c2ccc(Cl)cc2)cc1N | 0.125% (inactive) | 
Cc1ccsc1C1Nc2ccccc2-c2nc3ccccc3n21 (configuration not stated) | 0.699% (inactive) | 
O=C1Nc2ccccc2/C1=C/c1ccccc1Cl | 0% (inactive) | 
Cc1ccc(S(=O)(=O)N2CCN(C(=O)COC(=O)c3ccccc3OC(F)F)CC2)c(C)c1 | 0% (inactive) | 
O=c1c2cc(-c3ccccc3)sc2nc2n1N=C(c1ccccc1)CS2 | 1.14% (inactive) | 
Cc1ccc(S(=O)(=O)NN2C(=O)/C(=C/c3ccccn3)SC2=S)cc1 | 0.042% (inactive) | 
